Measurements reported in patent US7612064B2, “Sulfopyrroles” (Takeda Pharmaceutical Company Limited, priority 2003, dated 2009).

How the values were obtained:
MRC5 = assay: MTS proliferation assay; type: cell-based; conditions: MRC5, 72 h
Method in brief: (§1)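 Cells exposed 72 h under culture conditions to compound at 10, 3, 1 and 0.3 μM final, added in medium with max 5% DMSO. MTS reagent then added for a further 3 h and absorbance read at 492 nm.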

Jily = assay: MTS proliferation assay; type: cell-based; conditions: 72 h
Method in brief: as §1

Jurkat = assay: MTS proliferation assay; type: cell-based, human; conditions: 72 h
Method in brief: as §1

HeLa = assay: MTS proliferation assay; type: cell-based, human; conditions: 72 h
Method in brief: as §1

[1] = Hoechst 33342 nuclear staining; type: cell-based; conditions: for Hoechst 33342 nuclear staining score, H460: H460 cells; for Hoechst 33342 nuclear staining score, HeLa: HeLa cells; for Hoechst 33342 nuclear staining score, Jily: Jily cells; for Hoechst 33342 nuclear staining score, Jurkat: Jurkat cells; for Hoechst 33342 nuclear staining score, MRC5: MRC5 cells; on Hoechst 33342 nuclear staining score, PBLs: key: 0: no activity; 1: weak activity comprising less than 50% of the cells; 2: strong activity comprising more than 50% of the cells;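 on all read-outs here: apoptotic nuclei scored 0 none 1 weak under 50% of cells 2 strong over 50% of cells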
Method in brief: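 Cells were plated in 96 well tissue culture plates in 80 μl complete medium, with 3-5*10^3 cells per well for adherent lines and 8-10*10^3 for suspension lines. Adherent cells spread for 24 h before treatment, while suspension cells were treated right after seeding. Compounds were added in 20 μl complete medium containing max 5% DMSO.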

Row | Compound | IC50 (Jily) | Hoechst 33342 nuclear staining score, H460 ([1]; conc 0.1) | Hoechst 33342 nuclear staining score, H460 ([1]; conc 0.3) | Hoechst 33342 nuclear staining score, H460 ([1]; conc 1) | Hoechst 33342 nuclear staining score, H460 ([1]; conc 3) | Hoechst 33342 nuclear staining score, HeLa ([1]; conc 0.1) | Hoechst 33342 nuclear staining score, HeLa ([1]; conc 0.3) | Hoechst 33342 nuclear staining score, HeLa ([1]; conc 1) | Hoechst 33342 nuclear staining score, HeLa ([1]; conc 3) | Hoechst 33342 nuclear staining score, Jily ([1]; conc 0.1) | Hoechst 33342 nuclear staining score, Jily ([1]; conc 0.3) | Hoechst 33342 nuclear staining score, Jily ([1]; conc 1) | Hoechst 33342 nuclear staining score, Jily ([1]; conc 3) | Hoechst 33342 nuclear staining score, Jurkat ([1]; conc 0.1) | Hoechst 33342 nuclear staining score, Jurkat ([1]; conc 0.3) | Hoechst 33342 nuclear staining score, Jurkat ([1]; conc 1) | Hoechst 33342 nuclear staining score, Jurkat ([1]; conc 3) | Hoechst 33342 nuclear staining score, MRC5 ([1]; conc 0.1) | Hoechst 33342 nuclear staining score, MRC5 ([1]; conc 0.3) | Hoechst 33342 nuclear staining score, MRC5 ([1]; conc 1) | other results
1 | COc1cc(-c2cc(-c3cccnc3)cn2S(=O)(=O)c2ccc(C(F)(F)F)cc2)cc(OC)c1OC [Example 82] | > 1000 nM | 0 | 0 | 2 (strong activity comprising more than 50% of the cells) | 2 (strong activity comprising more than 50% of the cells) | 0 | 0 | 2 (strong activity comprising more than 50% of the cells) | 2 (strong activity comprising more than 50% of the cells) | 0 | 0 | 1 (weak activity comprising less than 50% of the cells) | 2 (strong activity comprising more than 50% of the cells) | 0 | 0 | 2 (strong activity comprising more than 50% of the cells) | 2 (strong activity comprising more than 50% of the cells) | 0 | 0 | 1 (weak activity comprising less than 50% of the cells) | IC50 (MRC5): > 1000 nM; IC50 (Jurkat): < 1000 nM; IC50 (HeLa): > 1000 nM; Hoechst 33342 nuclear staining score, MRC5 ([1]; conc 3): 1 (weak activity comprising less than 50% of the cells); Hoechst 33342 nuclear staining score, PBLs ([1]; conc 0.1): 0; Hoechst 33342 nuclear staining score, PBLs ([1]; conc 0.3): 0; Hoechst 33342 nuclear staining score, PBLs ([1]; conc 1): 0; Hoechst 33342 nuclear staining score, PBLs ([1]; conc 3): 0
2 | COc1ccc(S(=O)(=O)n2cc(CNc3ccc(N4CCOCC4)cc3)cc2-c2cc(OC)c(OC)c(OC)c2)cc1 [Example 94, 1-p-Methoxyphenylsulfonyl-4-p-morpholinophenylaminomethyl-2-(3,4,5-trimethoxyphenyl)-pyrrole] | < 200 nM | 0 | 2 (strong activity comprising more than 50% of the cells) | 2 (strong activity comprising more than 50% of the cells) | 2 (strong activity comprising more than 50% of the cells) | 0 | 2 (strong activity comprising more than 50% of the cells) | 2 (strong activity comprising more than 50% of the cells) | 2 (strong activity comprising more than 50% of the cells) | 0 | 2 (strong activity comprising more than 50% of the cells) | 2 (strong activity comprising more than 50% of the cells) | 2 (strong activity comprising more than 50% of the cells) | 0 | 2 (strong activity comprising more than 50% of the cells) | 2 (strong activity comprising more than 50% of the cells) | 2 (strong activity comprising more than 50% of the cells) | 0 | 0 | 0 | IC50 (MRC5; Homo sapiens): < 200 nM; IC50 (Jurkat; Homo sapiens): < 200 nM; IC50 (HeLa; Homo sapiens): < 200 nM; Hoechst 33342 nuclear staining score, MRC5 ([1]; conc 3): 2 (strong activity comprising more than 50% of the cells); Hoechst 33342 nuclear staining score, PBLs ([1]; conc 0.1): 0; Hoechst 33342 nuclear staining score, PBLs ([1]; conc 0.3): 0; Hoechst 33342 nuclear staining score, PBLs ([1]; conc 1): 0; Hoechst 33342 nuclear staining score, PBLs ([1]; conc 3): 0
3 | COc1cc(-c2cc(-c3cncc(CNC(C)=O)c3)cn2S(=O)(=O)c2ccc(C)cc2)cc(OC)c1OC [Example 60] | < 1000 nM | 0 | 0 | 2 (strong activity comprising more than 50% of the cells) | 2 (strong activity comprising more than 50% of the cells) | 0 | 0 | 1 (weak activity comprising less than 50% of the cells) | 2 (strong activity comprising more than 50% of the cells) | 0 | 0 | 2 (strong activity comprising more than 50% of the cells) | 2 (strong activity comprising more than 50% of the cells) | 0 | 2 (strong activity comprising more than 50% of the cells) | 2 (strong activity comprising more than 50% of the cells) | 2 (strong activity comprising more than 50% of the cells) | 0 | 0 | 0 | IC50 (MRC5): < 1000 nM; IC50 (Jurkat): < 1000 nM; IC50 (HeLa): < 1000 nM; Hoechst 33342 nuclear staining score, MRC5 ([1]; conc 3): 2 (strong activity comprising more than 50% of the cells); Hoechst 33342 nuclear staining score, PBLs ([1]; conc 0.1): 0; Hoechst 33342 nuclear staining score, PBLs ([1]; conc 0.3): 0; Hoechst 33342 nuclear staining score, PBLs ([1]; conc 1): 0; Hoechst 33342 nuclear staining score, PBLs ([1]; conc 3): 0
4 | COCCCNC(=O)c1cncc(-c2cc(-c3cc(OC)c(OC)c(OC)c3)n(S(=O)(=O)c3ccc(C)cc3)c2)c1.Cl [Example 65] | < 1000 nM | 0 | 0 | 2 (strong activity comprising more than 50% of the cells) | 2 (strong activity comprising more than 50% of the cells) | 0 | 0 | 0 | 2 (strong activity comprising more than 50% of the cells) | 0 | 0 | 2 (strong activity comprising more than 50% of the cells) | 2 (strong activity comprising more than 50% of the cells) | 0 | 0 | 2 (strong activity comprising more than 50% of the cells) | 2 (strong activity comprising more than 50% of the cells) | 0 | 0 | 2 (strong activity comprising more than 50% of the cells) | IC50 (MRC5): < 1000 nM; IC50 (Jurkat): < 1000 nM; IC50 (HeLa): < 1000 nM; Hoechst 33342 nuclear staining score, MRC5 ([1]; conc 3): 2 (strong activity comprising more than 50% of the cells); Hoechst 33342 nuclear staining score, PBLs ([1]; conc 0.1): 0; Hoechst 33342 nuclear staining score, PBLs ([1]; conc 0.3): 0; Hoechst 33342 nuclear staining score, PBLs ([1]; conc 1): 0; Hoechst 33342 nuclear staining score, PBLs ([1]; conc 3): 0
